Consider 74 sequences from the OligoGym collection.

This data set concerns the target IRF4. Conditions: ASO.

Values joined by “and” are separate entries in the source; they are usually repeats but may differ in a detail not shown here. Identical values can stand only once. After the bases stand the sugars from the 5' end (letter, count) and the backbone: PS all phosphorothioate, else s phosphorothioate and o phosphodiester by linkage. Methylation of C is not given here. e = 2'-O-(2-methoxyethyl) (MOE); k = constrained ethyl (cEt); d = 2'-deoxy (DNA)

On to TCTGAGCAGAACGAGG (sugars k3 d10 k3, PS), for which, under “SK-MEL-28, 4 µM”, the target mRNA inhibition amounted to 47%.
Still for that read-out and setting: the value for CGAGATATAAATAGCT (sugars k3 d10 k3, PS) was 53% and 58%.
As to CTGAGAGTAAACTTGG (sugars k3 d10 k3, PS), the target mRNA inhibition (MM.1R, 1 µM) is -1%.
Turning to GACCAGGATTCGCCAT (sugars k3 d10 k3, PS), for the setting “SK-MEL-28, 4 µM”, the target mRNA inhibition turned out to be 23%.
In the case of AGCCAGTGGCTGAAAC (sugars k3 d10 k3, PS), where the note is “SK-MEL-28, 4 µM”, the target mRNA inhibition is 21%.
On to TGAGAGTAAACTTGGC (sugars k3 d10 k3, PS), for which the target mRNA inhibition by setting is: (MM.1R, 0.0625 µM) -3%; (MM.1R, 0.074 µM) 5%; (MM.1R, 0.222 µM) 1%; (MM.1R, 0.25 µM) 11%; (MM.1R, 0.666 µM) 18%; (MM.1R, 1 µM) 20%. Besides, the target mRNA inhibition is 32% (MM.1R, 2 µM); 44% (MM.1R, 4 µM); 65% (SK-MEL-28, 4 µM).
Turning to ACTGAGAGTGCGAGGT (sugars k3 d10 k3, PS), the target mRNA inhibition (SK-MEL-28, 4 µM) was -20%.
Regarding GGTTGGCTGGTCTTTG (sugars k3 d10 k3, PS), the target mRNA inhibition was -2% and 15% (MM.1R, 0.0625 µM); 16% and 20% (MM.1R, 0.25 µM); 49% and 35% (MM.1R, 1 µM); 66% and 70% (MM.1R, 4 µM).
For the sequence GCGGAGGTTCCTTGAG (sugars k3 d10 k3, PS), the target mRNA inhibition (SK-MEL-28, 4 µM) was determined as 44%.
For the sequence ACCAATGGCAGCACCG (sugars k3 d10 k3, PS), under “SK-MEL-28, 4 µM”, the target mRNA inhibition worked out at 61%.
Take AACAAATTAAAGAGCG (sugars k3 d10 k3, PS): the target mRNA inhibition (SK-MEL-28, 4 µM) stood at 23%.
Turning to CTTCCCTGAGAAATGG (sugars k3 d10 k3, PS), the target mRNA inhibition was determined as 6% (MM.1R, 0.074 µM); 2% (MM.1R, 0.222 µM); 1% (MM.1R, 0.666 µM); 4% (MM.1R, 2 µM); 16% (SK-MEL-28, 0.185 µM); 50% (SK-MEL-28, 4 µM). In addition, the target mRNA inhibition is, setting by setting: (SK-MEL-28, 5 µM) 60%; (SK-MEL-28, 15 µM) 85%.
Consider ATACTTAAGCAAGTGG (sugars k3 d10 k3, PS), for which the target mRNA inhibition (SK-MEL-28, 4 µM) stood at 76%.
GTTAAGTCCCATCTGT (sugars k3 d10 k3, PS): the target mRNA inhibition (SK-MEL-28, 4 µM) turned out to be 40%.
As to TTACGCTTATTTTTCC (sugars k3 d10 k3, PS), the target mRNA inhibition (MM.1R, 1 µM) was found to be 39%.
In the case of AATGTCACGCCCGCAA (sugars k3 d10 k3, PS), the target mRNA inhibition (SK-MEL-28, 4 µM) was 19%.
Turning to GATAGTTAAGTACTTG (sugars k3 d10 k3, PS), for the setting “SK-MEL-28, 4 µM”, the target mRNA inhibition amounted to 49%.
“ACTGCTTGAGGTTTTC (sugars kkdddddddddekeke, PS)”: the target mRNA inhibition (MM.1R, 1 µM) came out at 40%.
Take GCTCAGCATGCAAGCC (sugars k3 d10 k3, PS): the target mRNA inhibition (SK-MEL-28, 4 µM) worked out at 0%.
With “TGTGTATTACTCTTAG (sugars kkddddddddddkeke, PS)”, the target mRNA inhibition (MM.1R, 1 µM) was 51% and 39%.
Consider “TACTGTTACCGATGCT (sugars kkddddddddddkeke, PS)”, for which the target mRNA inhibition (MM.1R, 1 µM) is 24% and 17%.
Consider “TACTGCTTGAGGTTTT (sugars kkdddddddddkdkdk, PS)”, for which the target mRNA inhibition (MM.1R, 1 µM) stood at 15%.
Regarding TTTTGGCTCCCTCAGG (sugars k3 d10 k3, PS), the target mRNA inhibition (MM.1R, 1 µM) was -3%.
For the sequence GCCGTTCCTTTTCAGA (sugars k3 d10 k3, PS), the target mRNA inhibition (SK-MEL-28, 4 µM) stood at 62%.
As to TCCAACCTTTATGATT (sugars k3 d10 k3, PS), the target mRNA inhibition (MM.1R, 1 µM) is -3%.
For ACAGGAGCCGCTACAG (sugars k3 d10 k3, PS), the target mRNA inhibition (SK-MEL-28, 4 µM) was 31%.
Consider “GTGATGTCAGGTTTTC (sugars kkdddddddddkdkdk, PS)”, for which the target mRNA inhibition (MM.1R, 1 µM) turned out to be 27%.
On to GCACAGTCTCTTTTTA (sugars k3 d10 k3, PS), for which, for the setting “SK-MEL-28, 4 µM”, the target mRNA inhibition is 36%.
As for TAGCATCAGAGCTAGA (sugars k3 d10 k3, PS), the target mRNA inhibition (SK-MEL-28, 4 µM) turned out to be 49%.
Take ACAGTCCACTCCACCC (sugars k3 d10 k3, PS): for the setting “MM.1R, 1 µM”, the target mRNA inhibition is 14%.
As for AACTTTTACCTGGTAT (sugars k3 d10 k3, PS), for the setting “SK-MEL-28, 4 µM”, the target mRNA inhibition was determined as 28%.
Take TTACGAGAGGGTCTGA (sugars k3 d10 k3, PS): where the note is “SK-MEL-28, 4 µM”, the target mRNA inhibition came out at 51%.
On to GTAGAGGAGGAGGACT (sugars k3 d10 k3, PS), for which the target mRNA inhibition (SK-MEL-28, 4 µM) was 16%.
On to AAGTGTCTTCCACAAG (sugars k3 d10 k3, PS), for which the target mRNA inhibition (SK-MEL-28, 4 µM) was determined as 54%.
Turning to CTGAATTGTTACTAAA (sugars k3 d10 k3, PS), the target mRNA inhibition (SK-MEL-28, 4 µM) is 21%.
For the sequence GATTAATTCTCCTATG (sugars k3 d10 k3, PS), for the setting “MM.1R, 1 µM”, the target mRNA inhibition was -19%.
As to CAGAACTAATGTCCCC (sugars k3 d10 k3, PS), for the setting “SK-MEL-28, 4 µM”, the target mRNA inhibition stood at 69%.
Regarding TGCCACAGTTGAACCC (sugars k3 d10 k3, PS), the target mRNA inhibition (SK-MEL-28, 4 µM) stood at 50%.
In the case of CACCTGATCTTGCTGC (sugars k3 d10 k3, PS), the target mRNA inhibition (MM.1R, 1 µM) came out at 12%.
With CACAAGCATAAAAGGT (sugars k3 d10 k3, PS), where the note is “SK-MEL-28, 4 µM”, the target mRNA inhibition is 26%.
With CCTGGGACTCAGGTGG (sugars k3 d10 k3, PS), the target mRNA inhibition (MM.1R, 0.074 µM) was found to be 6%; the target mRNA inhibition (MM.1R, 0.222 µM) was -6%; the target mRNA inhibition (MM.1R, 0.666 µM) came to 0%; the target mRNA inhibition (MM.1R, 2 µM) was 13%; the target mRNA inhibition (SK-MEL-28, 0.185 µM) worked out at 9%; the target mRNA inhibition (SK-MEL-28, 4 µM) came to 59%. Also, the target mRNA inhibition runs as follows: (SK-MEL-28, 5 µM) 64%; (SK-MEL-28, 15 µM) 91%.
With TTAAACAGTGCCCAAG (sugars k3 d10 k3, PS), under “SK-MEL-28, 4 µM”, the target mRNA inhibition is 21%.
Consider TGTAACAGGCTATCAG (sugars k3 d10 k3, PS), for which, for the setting “SK-MEL-28, 4 µM”, the target mRNA inhibition is 31%.
On to TCGGTCCACATACCTG (sugars k3 d10 k3, PS), for which, where the note is “SK-MEL-28, 4 µM”, the target mRNA inhibition is 39%.
For the sequence ATCTTAACCTGGAGAA (sugars k3 d10 k3, PS), under “SK-MEL-28, 4 µM”, the target mRNA inhibition came out at 28%.
Take CTAGTTTAAGGGTTAC (sugars k3 d10 k3, PS): where the note is “SK-MEL-28, 4 µM”, the target mRNA inhibition amounted to 27%.
For the sequence GAGTGCAGGAGAGGCT (sugars k3 d10 k3, PS), the target mRNA inhibition (SK-MEL-28, 4 µM) was found to be 31%.
For TAGGGATACAGCAGGC (sugars k3 d10 k3, PS), the target mRNA inhibition (SK-MEL-28, 4 µM) came out at 73%.
Turning to CCACGGACGGAGGCGG (sugars k3 d10 k3, PS), where the note is “MM.1R, 1 µM”, the target mRNA inhibition is -6%.
Take GATTTATGTTCCTTAA (sugars k3 d10 k3, PS): the target mRNA inhibition (SK-MEL-28, 4 µM) stood at 47%.
On to “AGTGATGTCAGGTTTT (sugars kkdddddddddkekek, PS)”, for which the target mRNA inhibition (MM.1R, 1 µM) turned out to be 39%.
Consider AGAAAACTCTAACCCT (sugars k3 d10 k3, PS), for which the target mRNA inhibition (SK-MEL-28, 4 µM) came out at 25%.
As for “GTAGTATGAGAAACGG (sugars kkdddddddddkdkdk, PS)”, the target mRNA inhibition (MM.1R, 1 µM) was found to be 32%.
As to “GCACATCAATGTTTTA (sugars k2 d9 e3 k2, PS)”, for the setting “MM.1R, 1 µM”, the target mRNA inhibition turned out to be 20%.
Take CGGCAGACGGGAGCCC (sugars k3 d10 k3, PS): the target mRNA inhibition (SK-MEL-28, 4 µM) was found to be 12%.
For CAAAACAGTAAGAGGG (sugars k3 d10 k3, PS), the target mRNA inhibition (SK-MEL-28, 4 µM) came to 31%.
Regarding “AGTTGTAAATGAGTCG (sugars k3 d9 k3 e1, PS)”, the target mRNA inhibition reads like this: (MM.1R, 0.074 µM) 27%; (MM.1R, 0.222 µM) 61%; (MM.1R, 0.666 µM) 80%; (MM.1R, 1 µM) 87%; (MM.1R, 2 µM) 95%.
As for ACGCACCATTCAGACA (sugars k3 d10 k3, PS), the target mRNA inhibition (SK-MEL-28, 4 µM) is -2%.
As to GCTAAACTCCTAAGTA (sugars k3 d10 k3, PS), the target mRNA inhibition (SK-MEL-28, 4 µM) amounted to 30%.
For the sequence CGGAGGTTCCTTGAGG (sugars k3 d10 k3, PS), the target mRNA inhibition was 5% and 10% (H929, 0.04 µM); 28% and 21% (KMS11, 0.2 µM); 6% (MM.1R, 0.0625 µM); 29% (MM.1R, 0.25 µM); 42% and 52% (MM.1R, 1 µM); 64% (MM.1R, 4 µM).
Consider CTAATTCCATAGAGCC (sugars k3 d10 k3, PS), for which the target mRNA inhibition was 2% (MM.1R, 0.0625 µM); -13% (MM.1R, 0.074 µM); -6% (MM.1R, 0.222 µM); 8% (MM.1R, 0.25 µM); 4% (MM.1R, 0.666 µM); 47% (MM.1R, 1 µM). Besides, the target mRNA inhibition amounted to 20% (MM.1R, 2 µM); 88% (MM.1R, 4 µM); 80% (SK-MEL-28, 4 µM).
Consider “GCAGTGATGTCAGGTT (sugars kkdddddddddkekek, PS)”, for which the target mRNA inhibition reads like this: (MM.1R, 0.074 µM) 14%; (MM.1R, 0.222 µM) 37%; (MM.1R, 0.666 µM) 60%; (MM.1R, 1 µM) 69%; (MM.1R, 2 µM) 81%.
For the sequence AAACACCCCTTCTTGT (sugars k3 d10 k3, PS), the target mRNA inhibition (SK-MEL-28, 4 µM) is -13%.
Still for that read-out and setting: with TTAAAGGAGTGCAGGA (sugars k3 d10 k3, PS) the figure was 16%; with TCCGCTTGGAGAATTA (sugars k3 d10 k3, PS), 13%.
For “CAGTGATGTCAGGTTT (sugars kkkdddddddddkeke, PS)”, the target mRNA inhibition (MM.1R, 1 µM) came to 34%.
For the sequence ACGAACGCGCAAAACC (sugars k3 d10 k3, PS), the target mRNA inhibition (SK-MEL-28, 4 µM) worked out at 6%.
As to CTTCAGCAAAGAGGGT (sugars k3 d10 k3, PS), for the setting “SK-MEL-28, 4 µM”, the target mRNA inhibition was determined as 59%.
Regarding CGCACTAAGTGGGCTC (sugars k3 d10 k3, PS), the target mRNA inhibition (SK-MEL-28, 4 µM) stood at 14%.
TACCAGCTCAATAATC (sugars k3 d10 k3, PS): the target mRNA inhibition (MM.1R, 1 µM) is -27%.
As to CACCACTATTCGAGAG (sugars k3 d10 k3, PS), under “SK-MEL-28, 4 µM”, the target mRNA inhibition was 48%.
Consider AGGTATACTTAAGCAA (sugars k3 d10 k3, PS), for which the target mRNA inhibition (SK-MEL-28, 4 µM) was found to be 68%.
As for GAGCACATGTCAACAG (sugars k3 d10 k3, PS), the target mRNA inhibition (SK-MEL-28, 4 µM) turned out to be 40%.
In the case of “TGGGATTATATACTGG (sugars k2 d9 e3 k2, PS)”, the target mRNA inhibition (MM.1R, 1 µM) was 54%.
